{"source": "patent US20250353841A1", "about": "(BIOGEN MA INC., priority 2022, published 2025)", "test_system": "mutant Huntington (HTT) protein", "experiment": "HTT Mutant HTRF iPSC assay (mHTT protein lowering)", "format": "cell-based", "conditions": "human iPSC derived from a HTT patient with a poly-Q49 mutation", "data": [{"compound": "Cc1cn2nc(-c3cc(F)c4nc([C@H]5[C@@H]6CNC[C@@H]65)cn4c3)cc(C)c2n1", "note": "[Compound 161, 6-[2-[(1S,5R)-3-azabicyclo[3.1.0]hexan-6-yl]-8-fluoro-imidazo[1,2-a]pyridin-6-yl]-2,8-dimethyl-imidazo[1,2-b]pyridazine]", "values": [{"measurement": "IC50", "result": "< 100", "unit": "nM"}]}, {"compound": "COc1cc2cc(-c3cc(F)c4nc(C5CCNCC5)cn4c3)ccc2cn1", "note": "[Compound 164, 6-(8-fluoro-2-(piperidin-4-yl)imidazo[1,2-a]pyridin-6-yl)-3-methoxyisoquinoline]", "values": [{"measurement": "IC50", "result": "100 to 1000", "unit": "nM"}]}, {"compound": "Cc1cn2nc(-c3cc(F)c4nc(C5CCN(CC6CC6)CC5)cn4c3)cc(C)c2n1", "note": "[Compound 165, 6-(2-(1-(cyclopropylmethyl)piperidin-4-yl)-8-fluoroimidazo[1,2-a]pyridin-6-yl)-2,8-dimethylimidazo[1,2-b]pyridazine]", "values": [{"measurement": "IC50", "result": "< 100", "unit": "nM"}]}, {"compound": "Cc1cn2nc(-c3cc(F)c4nc(C5CCN(C)CC5)cn4c3)cc(C(F)F)c2n1", "note": "[Compound 166, 8-(difluoromethyl)-6-(8-fluoro-2-(1-methylpiperidin-4-yl)imidazo[1,2-a]pyridin-6-yl)-2-methylimidazo[1,2-b]pyridazine]", "values": [{"measurement": "IC50", "result": "< 100", "unit": "nM"}]}, {"compound": "Cc1cn2nc(-c3cc(F)c4nc(C5CCN(C6CC6)CC5)cn4c3)cc(C(F)F)c2n1", "note": "[Compound 167, 6-(2-(1-cyclopropylpiperidin-4-yl)-8-fluoroimidazo[1,2-a]pyridin-6-yl)-8-(difluoromethyl)-2-methylimidazo[1,2-b]pyridazine]", "values": [{"measurement": "IC50", "result": "< 100", "unit": "nM"}]}, {"compound": "Cc1cn2nc(-c3cc(F)c4nc(C5CCC(N(C)C)CC5)cn4c3)cc(C)c2n1", "note": "(stereo not shown) [Compound 168, 4-(6-(2,8-dimethylimidazo[1,2-b]pyridazin-6-yl)-8-fluoroimidazo[1,2-a]pyridin-2-yl)-N,N-dimethylcyclohexan-1-amine]", "values": [{"measurement": "IC50", "result": "< 100", "unit": "nM"}]}, {"compound": "Cc1cn2nc(-c3cc(F)c4nc(C5CCOCC5)cn4c3)cc(C)c2n1", "note": "[Compound 169, 6-(8-fluoro-2-(tetrahydro-2H-pyran-4-yl)imidazo[1,2-a]pyridin-6-yl)-2,8-dimethylimidazo[1,2-b]pyridazine]", "values": [{"measurement": "IC50", "result": "100 to 1000", "unit": "nM"}]}, {"compound": "CN[C@H]1CC[C@H](c2cn3cc(-c4cc(F)c5nn(C)cc5c4)cc(F)c3n2)CC1", "note": "[Compound 170, (1r,4r)-4-(8-fluoro-6-(7-fluoro-2-methyl-2H-indazol-5-yl)imidazo[1,2-a]pyridin-2-yl)-N-methylcyclohexan-1-amine]", "values": [{"measurement": "IC50", "result": "< 100", "unit": "nM"}]}, {"compound": "Cc1cc(-c2cc(F)c3nc(C4CCN(C5CC5)CC4)cn3c2)nc2cn(C)nc12", "note": "[Compound 171, 5-(2-(1-cyclopropylpiperidin-4-yl)-8-fluoroimidazo[1,2-a]pyridin-6-yl)-2,7-dimethyl-2H-pyrazolo[4,3-b]pyridine]", "values": [{"measurement": "IC50", "result": "< 100", "unit": "nM"}]}, {"compound": "CCc1nc(C)cn2cc(-c3cc(F)c4nc(C5CCN(C6CC6)CC5)cn4c3)cc12", "note": "[Compound 172, 2-(1-cyclopropylpiperidin-4-yl)-6-(1-ethyl-3-methylpyrrolo[1,2-a]pyrazin-7-yl)-8-fluoroimidazo[1,2-a]pyridine]", "values": [{"measurement": "IC50", "result": "100 to 1000", "unit": "nM"}]}, {"compound": "CCN1CCC(c2cn3cc(-c4cc(C)c5nn(C)cc5n4)cc(F)c3n2)CC1", "note": "[Compound 173, 5-(2-(1-ethylpiperidin-4-yl)-8-fluoroimidazo[1,2-a]pyridin-6-yl)-2,7-dimethyl-2H-pyrazolo[4,3-b]pyridine]", "values": [{"measurement": "IC50", "result": "100 to 1000", "unit": "nM"}]}, {"compound": "Cc1cn2nc(-c3cc(F)c4nc(C5CCN(CC(F)F)CC5)cn4c3)cc(C)c2n1", "note": "[Compound 174, 6-(2-(1-(2,2-difluoroethyl)piperidin-4-yl)-8-fluoroimidazo[1,2-a]pyridin-6-yl)-2,8-dimethylimidazo[1,2-b]pyridazine]", "values": [{"measurement": "IC50", "result": "100 to 1000", "unit": "nM"}]}, {"compound": "CCc1nc(C)cn2cc(-c3cc(F)c4nc(C5CCN(CC)CC5)cn4c3)cc12", "note": "[Compound 175, 6-(1-ethyl-3-methylpyrrolo[1,2-a]pyrazin-7-yl)-2-(1-ethylpiperidin-4-yl)-8-fluoroimidazo[1,2-a]pyridine]", "values": [{"measurement": "IC50", "result": "100 to 1000", "unit": "nM"}]}, {"compound": "Cc1cn2nc(-c3cc(F)c4nc([C@H]5C[C@H](CN(C)C)C5)cn4c3)cc(C)c2n1", "note": "[Compound 181, 1-((1r,3r)-3-(6-(2,8-dimethylimidazo[1,2-b]pyridazin-6-yl)-8-fluoroimidazo[1,2-a]pyridin-2-yl)cyclobutyl)-N,N-dimethylmethanamine]", "values": [{"measurement": "IC50", "result": "< 100", "unit": "nM"}]}, {"compound": "Cc1cn2nc(-c3cc(F)c4nc([C@H]5C[C@@H](CN(C)C)C5)cn4c3)cc(C)c2n1", "note": "[Compound 182, 1-((1s,3s)-3-(6-(2,8-dimethylimidazo[1,2-b]pyridazin-6-yl)-8-fluoroimidazo[1,2-a]pyridin-2-yl)cyclobutyl)-N,N-dimethylmethanamine]", "values": [{"measurement": "IC50", "result": "< 100", "unit": "nM"}]}, {"compound": "Cc1cn2nc(-c3cc(F)c4nc(C5C6CCC5CNC6)cn4c3)cc(C)c2n1", "note": "(stereo not shown) [Compound 183, 6-(2-(3-azabicyclo[3.2.1]]octan-8-yl)-8-fluoroimidazo[1,2-a]pyridin-6-yl)-2,8-dimethylimidazo[1,2-blpyridazine]", "values": [{"measurement": "IC50", "result": "100 to 1000", "unit": "nM"}]}, {"compound": "Cc1cn2nc(-c3cc(F)c4nc(C56CC(C7CNC7)(C5)C6)cn4c3)cc(C)c2n1", "note": "[Compound 184]", "values": [{"measurement": "IC50", "result": "100 to 1000", "unit": "nM"}]}, {"compound": "Cc1cn2nc(-c3cc(F)c4nc([C@H]5[C@@H]6CN(C)C[C@@H]65)cn4c3)cc(C)c2n1", "note": "[Compound 185, 6-[8-fluoro-2-[(1S,5R)-3-methyl-3-azabicyclo[3.1.0]hexan-6-yl]imidazo[1,2-a]pyridin-6-yl]-2,8-dimethyl-imidazo[1,2-b]pyridazine]", "values": [{"measurement": "IC50", "result": "< 100", "unit": "nM"}]}, {"compound": "COCCN1C[C@@H]2[C@H](C1)[C@H]2c1cn2cc(-c3cc(C)c4nc(C)cn4n3)cc(F)c2n1", "note": "[Compound 187, 6-(8-fluoro-2-((1R,5S,6r)-3-(2-methoxyethyl)-3-azabicyclo[3.1.0]hexan-6-yl)imidazo[1,2-a]pyridin-6-yl)-2,8-dimethylimidazo[1,2-b]pyridazine]", "values": [{"measurement": "IC50", "result": "< 100", "unit": "nM"}]}, {"compound": "CCN1C[C@@H]2[C@H](C1)[C@H]2c1cn2cc(-c3cc(C)c4nc(C)cn4n3)cc(F)c2n1", "note": "[Compound 188, 6-(2-((1R,5S,6r)-3-ethyl-3-azabicyclo[3.1.0]hexan-6-yl)-8-fluoroimidazo[1,2-a]pyridin-6-yl)-2,8-dimethylimidazo[1,2-b]pyridazine]", "values": [{"measurement": "IC50", "result": "100 to 1000", "unit": "nM"}]}, {"compound": "Cc1cn2nc(-c3cc(F)c4nc([C@H]5C[C@]6(CCNC6)C5)cn4c3)cc(C)c2n1", "note": "[Compound 191, 6-(8-fluoro-2-((2s,4s)-6-azaspiro[3.4]octan-2-yl)imidazo[1,2-a]pyridin-6-yl)-2,8-dimethylimidazo[1,2-b]pyridazine]", "values": [{"measurement": "IC50", "result": "< 100", "unit": "nM"}]}, {"compound": "Cc1cn2nc(-c3cc(F)c4nc(C5CCN(C6CCOC6)CC5)cn4c3)cc(C)c2n1", "note": "(stereo not shown) [Compound 192, 6-(8-fluoro-2-(1-(tetrahydrofuran-3-yl)piperidin-4-yl)imidazo[1,2-a]pyridin-6-yl)-2,8-dimethylimidazo[1,2-b]pyridazine]", "values": [{"measurement": "IC50", "result": "< 100", "unit": "nM"}]}, {"compound": "Cc1cn2nc(-c3cc(F)c4nc([C@H]5C[C@@]6(CCNC6)C5)cn4c3)cc(C)c2n1", "note": "[Compound 193, 6-(8-fluoro-2-((2r,4r)-6-azaspiro[3.4]octan-2-yl)imidazo[1,2-a]pyridin-6-yl)-2,8-dimethylimidazo[1,2-b]pyridazine]", "values": [{"measurement": "IC50", "result": "< 100", "unit": "nM"}]}, {"compound": "Cc1cn2nc(-c3cc(F)c4nc(C5CCNCC5)cn4c3)cc(C3CC3)c2n1", "note": "[Compound 194, 8-cyclopropyl-6-(8-fluoro-2-(piperidin-4-yl)imidazo[1,2-a]pyridin-6-yl)-2-methylimidazo[1,2-b]pyridazine]", "values": [{"measurement": "IC50", "result": "< 100", "unit": "nM"}]}, {"compound": "Cc1cn2nc(-c3cc(F)c4nc(C5CCNCC5)cn4c3)cc2c(C)n1", "note": "[Compound 195, 2-(8-fluoro-2-(piperidin-4-yl)imidazo[1,2-a]pyridin-6-yl)-4,6-dimethylpyrazolo[1,5-a]pyrazine]", "values": [{"measurement": "IC50", "result": "< 100", "unit": "nM"}]}]}
